In patent publication US4452807A, “(R,S)-1-(3-Hydroxy-4-methoxybenzoyl)-3-hydroxy-2-pyrrolidinone intermediates therefor and use for treating cerebral insufficiency” (Hoffmann-La Roche Inc., priority 1981, dated 1984):

Assay: Acute toxicity, single oral administration to mice
Settings: mouse, in vivo, p.o.
Description: Moreover, the Table contains data concerning the acute toxicity, that is, LD50 in mg/kg in the case of single oral administration to mice.

COc1ccc(C(=O)N2CCC(O)C2=O)cc1O (racemic) [R,S, (R,S)-1-(3-hydroxy-4-methoxybenzoyl)-3-hydroxy-2-pyrrolidinone] showed an LD50 greater than 5000 mg/kg.

With COc1ccc(C(=O)N2CC[C@@H](O)C2=O)cc1O [R, (R)-1-(3-hydroxy-4-methoxybenzoyl)-3-hydroxy-2-pyrrolidinone] the LD50 was greater than 5000 mg/kg.

Work on COc1ccc(C(=O)N2CC[C@H](O)C2=O)cc1O [S, (S)-1-(3-hydroxy-4-methoxybenzoyl)-3-hydroxy-2-pyrrolidinone] yielded an LD50 greater than 4000 mg/kg.
